Measurements from US12180193B2, “Accelerating fibrosarcoma protein degrading compounds and associated methods of use” (Arvinas Operations, Inc., priority 2020, dated 2024).

Legend:
BRAF V600E = molecular target: T1, BRAF V600E (Homo sapiens, UniProt P15056, V600E); experiment: Cellular assay of target protein degradation, T-Rex 293 cells stably transfected with HA-BRAF_V600E (HA immunofluorescence, high content imaging); type: cell-based; details: T-Rex 293 HA-BRAF V600E; for DC50: half maximal degradation, read-out: BRaf V600E DC50; for Dmax: maximum degradation observed
T1 construct: expressed in transfected cells
Method in brief: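 HA immunofluorescence on fixed cells, imaged by high-content reader, measured loss of HA-BRAF V600E in stably transfected T-Rex 293 cells induced with 1 ng/mL doxycycline. Compounds were applied for 24 h at 37 °C (final 0.1 nM–1 μM, 0.1% DMSO); DC50 and Dmax (% of control) were reported.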

BRAF G466V = molecular target: T2, BRAF G466V (Homo sapiens, UniProt P15056, G466V); experiment: Cellular assay of target protein degradation, T-Rex 293 cells stably transfected with HA-BRAF G466V (HA immunofluorescence, high content imaging); type: cell-based; details: T-Rex 293 HA-BRAF G466V; for DC50: half maximal degradation, read-out: BRaf G466V DC50; for Dmax: maximum degradation observed
T2 construct: expressed in transfected cells
Method in brief: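 HA-BRAF G466V levels were read by HA immunofluorescence and high-content imaging after 24 h compound exposure (final 30 nM–3 pM, 0.1% DMSO, 37 °C). Expression was induced with 0.75 ng/mL doxycycline. Outputs: half-maximal degradation concentration (DC50) and maximal degradation (Dmax) relative to control.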

T1 sequence (P15056 whole entry V600E): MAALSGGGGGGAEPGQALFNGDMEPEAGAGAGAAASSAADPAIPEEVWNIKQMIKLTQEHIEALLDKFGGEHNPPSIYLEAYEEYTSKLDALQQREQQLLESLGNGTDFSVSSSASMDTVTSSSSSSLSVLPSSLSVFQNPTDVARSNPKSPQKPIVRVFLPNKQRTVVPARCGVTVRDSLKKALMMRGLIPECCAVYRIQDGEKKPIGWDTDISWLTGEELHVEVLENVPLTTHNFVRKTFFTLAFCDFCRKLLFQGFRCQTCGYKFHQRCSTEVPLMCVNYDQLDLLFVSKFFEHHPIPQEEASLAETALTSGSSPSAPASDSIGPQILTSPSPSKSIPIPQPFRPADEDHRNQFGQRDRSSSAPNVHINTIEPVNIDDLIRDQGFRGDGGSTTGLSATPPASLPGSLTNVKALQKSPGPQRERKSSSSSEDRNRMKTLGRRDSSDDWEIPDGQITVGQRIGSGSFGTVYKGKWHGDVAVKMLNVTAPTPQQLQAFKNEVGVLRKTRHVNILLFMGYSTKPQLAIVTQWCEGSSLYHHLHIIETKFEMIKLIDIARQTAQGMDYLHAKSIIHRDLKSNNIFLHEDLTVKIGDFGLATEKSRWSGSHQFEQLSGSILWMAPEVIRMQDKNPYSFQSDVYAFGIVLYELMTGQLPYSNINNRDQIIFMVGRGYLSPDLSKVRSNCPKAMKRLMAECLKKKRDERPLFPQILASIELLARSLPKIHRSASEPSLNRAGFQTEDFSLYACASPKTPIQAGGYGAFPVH
T2 sequence (P15056 whole entry G466V): as the sequence (P15056 whole entry V600E) above, with G466V, E600V counted along it

Structure (SMILES)	DC50 (BRAF V600E) [nM]	DC50 (BRAF G466V) [nM]	Dmax (BRAF G466V) [%]	Dmax (BRAF V600E) [%]
O=C1CCC(N2Cc3cc(N4CC(N5C[C@H]6C[C@@H]5CN6c5ccc(-c6cnc7[nH]cc(C(=O)c8c(F)ccc(NS(=O)(=O)N9CC[C@@H](F)C9)c8F)c7c6)cc5)C4)ccc3C2=O)C(=O)N1 (stereo partly drawn) [Compound 5, (3R)-N-[3-(5-{4-[(1R,4R)-5-{1-[2-(2,6-dioxopiperidin-3-yl)-1-oxo-2,3-dihydro-1H-isoindol-5-yl]azetidin-3-yl}-2,5-diazabicyclo[2.2.1]heptan-2-yl]phenyl}-1H-pyrrolo[2,3-b]pyridine-3-carbonyl)-2,4-difluorophenyl]-3-fluoropyrrolidine-1-sulfonamide]	> 500	1 to 10	35 to 70	
CC1(c2ccc(C3CCN(CC4CCN(c5ccc(-c6cnc7[nH]cc(C(=O)c8c(F)ccc(NS(=O)(=O)N9CC[C@@H](F)C9)c8F)c7c6)cc5)CC4)CC3)cc2F)CCC(=O)NC1=O (stereo partly drawn) [Compound 176, (3R)-N-[2,4-difluoro-3-(5-{4-[4-({4-[3-fluoro-4-(3-methyl-2,6-dioxopiperidin-3-yl)phenyl]piperidin-1-yl}methyl)piperidin-1-yl]phenyl}-1H-pyrrolo[2,3-b]pyridine-3-carbonyl)phenyl]-3-fluoropyrrolidine-1-sulfonamide]	5 to 50	1 to 10	35 to 70	< 35
C[C@H]1[C@H](F)CCN1S(=O)(=O)Nc1ccc(F)c(C(=O)c2c[nH]c3ncc(-c4ccc(N5CCC(CN6CCC(c7ccc8c(c7)CN([C@H]7CCC(=O)NC7=O)C8=O)CC6)CC5)cc4)cc23)c1F [Compound 270, (2S,3R)-N-{3-[5-(4-{4-[(4-{2-[(3S)-2,6-dioxopiperidin-3-yl]-1-oxo-2,3-dihydro-1H-isoindol-5-yl}piperidin-1-yl)methyl]piperidin-1-yl}phenyl)-1H-pyrrolo [2,3-b]pyridine-3-carbonyl]-2,4-difluorophenyl}-3-fluoro-2-methylpyrrolidine-1-sulfonamide]	5 to 50	1 to 10	> 70	35 to 70
C[C@@H]1C[C@H](CN2CCC(c3ccc4c(c3)CN([C@@H]3CCC(=O)NC3=O)C4=O)CC2)CCN1c1ccc(-c2cnc3[nH]cc(C(=O)c4c(F)ccc(NS(=O)(=O)N5CC[C@@H](F)C5)c4F)c3c2)cc1 [Compound 242, (3R)-N-[3-(5-{4-[(2R,4R)-4-[(4-{2-[(3R)-2,6-dioxopiperidin-3-yl]-1-oxo-2,3-dihydro-1H-isoindol-5-yl}piperidin-1-yl)methyl]-2-methylpiperidin-1-yl]phenyl}-1H-pyrrolo[2,3-b]pyridine-3-carbonyl)-2,4-difluorophenyl]-3-fluoropyrrolidine-1-sulfonamide]	5 to 50	1 to 10	> 70	35 to 70
COc1cc(N2CC3(CN(CC4CCN(c5ccc(-c6cnc7[nH]cc(C(=O)c8c(F)ccc(NS(=O)(=O)N9CC[C@@H](F)C9)c8F)c7c6)cc5F)CC4)C3)C2)cc2c1C(=O)N(C1CCC(=O)NC1=O)C2 (stereo partly drawn) [Compound 132, (3R)-N-[3-(5-{4-[4-({6-[2-(2,6-dioxopiperidin-3-yl)-7-methoxy-1-oxo-2,3-dihydro-1H-isoindol-5-yl]-2,6-diazaspiro[3.3]heptan-2-yl}methyl)piperidin-1-yl]-3-fluorophenyl}-1H-pyrrolo[2,3-b]pyridine-3-carbonyl)-2,4-difluorophenyl]-3-fluoropyrrolidine-1-sulfonamide]	5 to 50	< 1	> 70	35 to 70
O=C1CC[C@H](N2Cc3cc(C4CCN(CC5CCN(c6ccc(-c7cnc8[nH]cc(C(=O)c9c(F)ccc(NS(=O)(=O)N%10CC[C@@H](F)C%10)c9Cl)c8c7)cc6)CC5)CC4)ccc3C2=O)C(=O)N1 [Compound 252, (3R)-N-{2-chloro-3-[5-(4-{4-[(4-{2-[(3S)-2,6-dioxopiperidin-3-yl]-1-oxo-2,3-dihydro-1H-isoindol-5-yl}piperidin-1-yl)methyl]piperidin-1-yl}phenyl)-1H-pyrrolo [2,3-b]pyridine-3-carbonyl]-4-fluorophenyl}-3-fluoropyrrolidine-1-sulfonamide]	5 to 50	< 1	35 to 70	35 to 70
O=C1CCC(N2Cc3cc(N4CCN(CCc5ccc(-c6cnc7[nH]cc(C(=O)c8c(F)ccc(NS(=O)(=O)N9CC[C@@H](F)C9)c8F)c7c6)cc5)CC4)c(F)cc3C2=O)C(=O)N1 (stereo partly drawn) [Compound 152, (3R)-N-(3-{5-[4-(2-{4-[2-(2,6-dioxopiperidin-3-yl)-6-fluoro-1-oxo-2,3-dihydro-1H-isoindol-5-yl]piperazin-1-yl}ethyl)phenyl]-1H-pyrrolo[2,3-b]pyridine-3-carbonyl}-2,4-difluorophenyl)-3-fluoropyrrolidine-1-sulfonamide]	5 to 50	1 to 10	> 70	35 to 70
O=C1CCC(N2Cc3cc(N4CCC(CN5CCN(Cc6ccc(-c7cnc8[nH]cc(C(=O)c9c(F)ccc(NS(=O)(=O)N%10CC[C@@H](F)C%10)c9F)c8c7)cc6)CC5)CC4)ccc3C2=O)C(=O)N1 (stereo partly drawn) [Compound 146, (3R)-N-{3-[5-(4-{[4-({1-[2-(2,6-dioxopiperidin-3-yl)-1-oxo-2,3-dihydro-1H-isoindol-5-yl]piperidin-4-yl}methyl)piperazin-1-yl]methyl}phenyl)-1H-pyrrolo[2,3-b]pyridine-3-carbonyl]-2,4-difluorophenyl}-3-fluoropyrrolidine-1-sulfonamide]	5 to 50	1 to 10	> 70	35 to 70
O=C1CC[C@@H](N2Cc3cc(C4CCN(CC5CCN(c6ccc(-c7cnc8[nH]cc(C(=O)c9c(F)ccc(NS(=O)(=O)N%10CCC(F)(F)C%10)c9F)c8c7)cc6)CC5)CC4)ccc3C2=O)C(=O)N1 [Compound 233, N-{3-[5-(4-{4-[(4-{2-[(3R)-2,6-dioxopiperidin-3-yl]-1-oxo-2,3-dihydro-1H-isoindol-5-yl}piperidin-1-yl)methyl]piperidin-1-yl}phenyl)-1H-pyrrolo[2,3-b]pyridine-3-carbonyl]-2,4-difluorophenyl}-3,3-difluoropyrrolidine-1-sulfonamide]	5 to 50	1 to 10	> 70	35 to 70

Now from value to molecule:

DC50 (BRAF V600E) [nM]	DC50 (BRAF G466V) [nM]	Dmax (BRAF G466V) [%]	Dmax (BRAF V600E) [%]	Structure (SMILES)
5 to 50	1 to 10	35 to 70	35 to 70	Cc1c(NS(=O)(=O)N2CC[C@@H](F)C2)ccc(F)c1C(=O)c1c[nH]c2ncc(-c3ccc(N4CCC(CN5CCC(c6ccc7c(c6)CN([C@H]6CCC(=O)NC6=O)C7=O)CC5)CC4)cc3)cc12 [Compound 253, (3R)-N-{3-[5-(4-{4-[(4-{2-[(3S)-2,6-dioxopiperidin-3-yl]-1-oxo-2,3-dihydro-1H-isoindol-5-yl}piperidin-1-yl)methyl]piperidin-1-yl}phenyl)-1H-pyrrolo [2,3-b]pyridine-3-carbonyl]-4-fluoro-2-methylphenyl}-3-fluoropyrrolidine-1-sulfonamide]
5 to 50	> 30		35 to 70	COc1cc(N2CC(N3CCN(c4ccc(-c5cnc6[nH]cc(C(=O)c7c(F)ccc(NS(=O)(=O)N8CC[C@@H](F)C8)c7F)c6c5)cc4)CC3)C2)cc2c1C(=O)N(C1CCC(=O)NC1=O)C2 (stereo partly drawn) [Compound 79, (3R)-N-(3-{5-[4-(4-{1-[2-(2,6-dioxopiperidin-3-yl)-7-methoxy-1-oxo-2,3-dihydro-1H-isoindol-5-yl]azetidin-3-yl}piperazin-1-yl)phenyl]-1H-pyrrolo[2,3-b]pyridine-3-carbonyl}-2,4-difluorophenyl)-3-fluoropyrrolidine-1-sulfonamide]
< 5	1 to 10	35 to 70	35 to 70	COc1cc(N2CCC(CN3CCC4(CC3)CCN(c3ccc(-c5cnc6[nH]cc(C(=O)c7c(F)ccc(NS(=O)(=O)N8CC[C@@H](F)C8)c7F)c6c5)cc3)CC4)CC2)cc2c1C(=O)N(C1CCC(=O)NC1=O)C2 (stereo partly drawn) [Compound 6, (3R)-N-[3-(5-{4-[9-({1-[2-(2,6-dioxopiperidin-3-yl)-7-methoxy-1-oxo-2,3-dihydro-1H-isoindol-5-yl]piperidin-4-yl}methyl)-3,9-diazaspiro[5.5]undecan-3-yl]phenyl}-1H-pyrrolo[2,3-b]pyridine-3-carbonyl)-2,4-difluorophenyl]-3-fluoropyrrolidine-1-sulfonamide]
5 to 50	1 to 10	> 70	35 to 70	C[C@@H]1C[C@H](CN2CCC(c3ccc4c(c3)CN([C@H]3CCC(=O)NC3=O)C4=O)CC2)CCN1c1ccc(-c2cnc3[nH]cc(C(=O)c4c(F)ccc(NS(=O)(=O)N5CC[C@@H](F)C5)c4F)c3c2)cc1 [Compound 241, (3R)-N-[3-(5-{4-[(2R,4R)-4-[(4-{2-[(3S)-2,6-dioxopiperidin-3-yl]-1-oxo-2,3-dihydro-1H-isoindol-5-yl}piperidin-1-yl)methyl]-2-methylpiperidin-1-yl]phenyl}-1H-pyrrolo[2,3-b]pyridine-3-carbonyl)-2,4-difluorophenyl]-3-fluoropyrrolidine-1-sulfonamide]
< 5	1 to 10	> 70	35 to 70	O=C1CC[C@@H](N2Cc3cc(C[C@H](O)CN4CCN(c5ccc(-c6cnc7[nH]cc(C(=O)c8c(F)ccc(NS(=O)(=O)N9CC[C@@H](F)C9)c8F)c7c6)cc5)CC4)ccc3C2=O)C(=O)N1 [Compound 75, (3R)-N-{3-[5-(4-{4-[(2S)-3-{2-[(3R)-2,6-dioxopiperidin-3-yl]-1-oxo-2,3-dihydro-1H-isoindol-5-yl}-2-hydroxypropyl]piperazin-1-yl}phenyl)-1H-pyrrolo[2,3-b]pyridine-3-carbonyl]-2,4-difluorophenyl}-3-fluoropyrrolidine-1-sulfonamide]
